Data: ChEMBL document CHEMBL1153524, “2009 Claude S. Hudson Award in Carbohydrate Chemistry. Carbohydrates: a frontier in medicinal chemistry” (2009)

System: Plasmodium berghei
Assay: Antiplasmodial activity as survival against Plasmodium berghei ANKA infected mice (Mus musculus)
Type: functional

NCCOP(=O)(O)OC[C@H]1O[C@H](O[C@@H]2[C@@H](OC[C@H]3O[C@H](O[C@H]4[C@H](O)[C@@H](N)[C@@H](O[C@@H]5[C@@H](O)[C@H](O)[C@@H](O)[C@H]6OP(=O)(O)O[C@H]65)O[C@@H]4CO)[C@@H](O)[C@@H](O)[C@@H]3O)O[C@H](CO)[C@@H](O)[C@@H]2O)[C@@H](O[C@H]2O[C@H](CO)[C@@H](O)[C@H](O)[C@@H]2O)[C@@H](O)[C@@H]1O
Survival: 75%
